Tests used:
zebrafish embryos = experiment: Toxicity (highest non-toxic dose) in zebrafish embryos; format: in vivo; details: 72 hpf for 24 h
Method: (§1) Zebrafish embryos were generated by natural pair-wise mating (3–12 months old) and were raised at 28.5°C in embyro water. Healthy, hatched zebrafish were picked out at 3 dpf and distributed into a 12-well microplate with 10 to 15 fish in each well. Different concentrations (10, 30, 100 µM) of calycosin, raloxifene or tamoxifen solutions were then added to wells and incubated at 28°C for 24 h. Embryos receiving DMSO (0.1%) served as vehicle controls and were equivalent to no treatment. Each experiment was repeated at least three times, with 30 embryos per group. VTKI was dissolved in DMSO as stock. Zebrafish embryos, Tg(fli-1:EGFP) and Tg(fli-1:nEGFP), were treated with inhibitor dissolved in embryo water from 3 dpf at the concentration indicated, controlled by DMSO treated embryos. Embryos were maintained using standard methods.
(§2) At 96 hpf, zebrafish were removed from microplates and observed for viability and gross morphological changes under a fluorescence microscope (Olympus IX81 Motorized Inverted Microscope, Japan) equipped with a digital camera (DP controller, Soft Imaging System, Olympus). Images were analyzed with Axiovision 4.2 and Adobe Photoshop 7.0.

[1] = system: subintestinal vein vessels (SIVs) of Tg(fli1:EGFP) zebrafish embryos; experiment: Blood vessel formation (SIV diameter/morphology) in Tg(fli1:EGFP) zebrafish embryos; format: in vivo; details: for angiogenic effect in SIVs, comparison with classical SERMs: raloxifene 10 µM, tamoxifen 3 µM, 17-βEstradiol 10 µM, calycosin 100 µM
Method: as §1, with “Different concentrations (10, 30, 100 µM) of calycosin, raloxifene or tamoxifen solutions were then added to wells and incubated at 28°C for 24 h.” left out
as §2
Three random points in SIVs of Tg(fli1:EGFP) zebrafish embryos were chosen for vessel diameter measurement using AxiovisionLE 4.1. Numbers of endothelial cells in SIVs of Tg(fli1:nEGFP) zebrafish embryos were assessed by direct counting of the total number of green light points. Each green light point represents one endothelial cell (GFP+).

ERK1/2 = experiment: Western blotting of phospho-ERK1/2 in HUVEC; format: cell-based, Human
HUVEC = HUVEC viability/proliferation by XTT assay; format: cell-based, Human; details: P<0.05
ERα [2] = biological target: T1, ERα (Homo sapiens, UniProt P03372); experiment: ER fluorescence polarization competitive binding assay (Fluormone ES2 displacement), ERα
T1 construct: purchased Invitrogen
T1 sequence (P03372 1-595): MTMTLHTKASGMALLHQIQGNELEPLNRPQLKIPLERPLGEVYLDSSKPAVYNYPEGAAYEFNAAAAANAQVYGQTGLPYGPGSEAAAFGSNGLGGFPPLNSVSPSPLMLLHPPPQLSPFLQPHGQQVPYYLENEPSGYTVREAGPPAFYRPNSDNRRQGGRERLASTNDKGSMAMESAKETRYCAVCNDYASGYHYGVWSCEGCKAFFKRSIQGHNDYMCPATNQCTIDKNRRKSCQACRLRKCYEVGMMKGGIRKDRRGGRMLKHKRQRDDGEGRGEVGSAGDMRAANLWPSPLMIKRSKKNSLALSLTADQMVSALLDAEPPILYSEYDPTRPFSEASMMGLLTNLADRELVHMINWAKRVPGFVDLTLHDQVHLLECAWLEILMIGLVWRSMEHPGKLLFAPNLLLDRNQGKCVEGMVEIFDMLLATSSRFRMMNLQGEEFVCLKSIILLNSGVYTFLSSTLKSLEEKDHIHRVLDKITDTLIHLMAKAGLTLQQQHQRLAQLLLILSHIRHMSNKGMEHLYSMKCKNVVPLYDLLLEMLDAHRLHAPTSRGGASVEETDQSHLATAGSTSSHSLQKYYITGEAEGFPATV
Method: (§3) The binding affinity of calycosin to ER-α and β was evaluated by the commercially available competitor assay (Invitrogen, Carlasbad, CA) according to the manufacturer's instructions. In brief, ER was added to fluorescently tagged ER ligand (Fluormone™ ES2) to form ER/Fluormone™ ES2 complexes with a high fluorescent polarization value. Displacement of fluorescently tagged ligands by unlabeled ligands decreased fluorescent polarization, resulting in a low value. In this system, changes in intensity of polarization reflect displacement of fluorescently tagged ligands. […] Plates were incubated at room temperature for 2 h and fluorescent polarization values measured using a Multilabel Counter (Perkin Elmer, Singapore).

ERα [3] = biological target: T2, ERα (Homo sapiens, UniProt P03372); experiment: GeneBLAzer β-lactamase reporter-gene assay, agonist activity, ERα-UAS-bla GripTite cells
T2 sequence (P03372 311-547 limits assumed): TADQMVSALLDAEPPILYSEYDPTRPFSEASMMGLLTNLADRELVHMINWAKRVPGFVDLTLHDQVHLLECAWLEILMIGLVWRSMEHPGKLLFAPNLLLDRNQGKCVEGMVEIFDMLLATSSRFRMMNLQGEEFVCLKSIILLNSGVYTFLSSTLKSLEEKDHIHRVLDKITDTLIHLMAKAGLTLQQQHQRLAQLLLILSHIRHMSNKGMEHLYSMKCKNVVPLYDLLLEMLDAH

[4] = system: endothelial cells in SIVs of Tg(fli1:nEGFP) zebrafish embryos; experiment: Endothelial cell number in SIVs of Tg(fli1:nEGFP) zebrafish embryos; format: in vivo; details: calycosin 10, 30, 100 µM, 72 hpf for 24 h; SIV region
Method: as §1, with “Embryos were maintained using standard methods.” left out
as §2
Three random points in SIVs of Tg(fli1:EGFP) zebrafish embryos were chosen for vessel diameter measurement using AxiovisionLE 4.1. Numbers of endothelial cells in SIVs of Tg(fli1:nEGFP) zebrafish embryos were assessed by direct counting of the total number of green light points. […]

ERβ [5] = biological target: T3, ERβ (Homo sapiens, UniProt Q92731)
Target sequence in this assay (Q92731 264-498 limits assumed): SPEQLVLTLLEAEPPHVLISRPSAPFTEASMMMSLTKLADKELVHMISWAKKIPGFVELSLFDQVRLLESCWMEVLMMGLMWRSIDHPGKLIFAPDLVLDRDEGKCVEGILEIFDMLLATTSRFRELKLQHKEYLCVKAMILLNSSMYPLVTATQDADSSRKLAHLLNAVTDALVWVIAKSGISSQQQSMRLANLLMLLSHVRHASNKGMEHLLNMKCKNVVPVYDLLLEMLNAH

ERβ [6] = biological target: T3, ERβ; experiment: biochemical
Method: as §3
Target sequence in this assay (Q92731 whole entry): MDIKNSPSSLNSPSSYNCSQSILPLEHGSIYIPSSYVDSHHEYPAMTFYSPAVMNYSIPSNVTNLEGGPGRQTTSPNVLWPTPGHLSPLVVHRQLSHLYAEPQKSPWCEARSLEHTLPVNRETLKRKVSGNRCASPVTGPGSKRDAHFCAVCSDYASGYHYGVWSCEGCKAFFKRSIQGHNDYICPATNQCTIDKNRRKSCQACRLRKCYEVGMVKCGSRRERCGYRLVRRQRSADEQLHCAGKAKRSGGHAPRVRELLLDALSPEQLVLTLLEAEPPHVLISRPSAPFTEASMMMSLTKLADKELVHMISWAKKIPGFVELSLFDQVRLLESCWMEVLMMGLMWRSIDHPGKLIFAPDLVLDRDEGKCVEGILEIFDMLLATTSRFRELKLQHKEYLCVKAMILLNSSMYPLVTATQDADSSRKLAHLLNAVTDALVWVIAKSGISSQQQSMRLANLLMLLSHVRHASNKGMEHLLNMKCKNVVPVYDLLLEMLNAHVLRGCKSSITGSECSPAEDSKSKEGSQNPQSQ

[7] = system: VEGFA, VEGFR1, Flk1A, Flk1B mRNA; experiment: mRNA expression in calycosin treated zebrafish by real-time PCR; format: in vivo; details: 100 µM, 6 h
Method: Zebrafish embryos at 72 hpf were treated with calycosin for 6 h. Total RNA was extracted from 30 zebrafish embryos of each treatment group using the RNeasy Mini Kit (Qiagen, USA) in accordance with the manufacturer's instructions. RNA was reverse transcribed to single-strand cDNA using SuperScript™ III First-Strand Synthesis System for RT–PCR (Invitrogen™, USA), followed by real-time PCR using the TaqMan® Universal PCR Master Mix and 250 nM custom TaqMan primers for zebrafish Flk1A, Flk1B, VEGFR1, VEGFA2 (Applied Biosystems, USA) in the ABI 7500 Real-Time PCR System (Applied Biosystems). The expression of Flk1A, VEGFA2 mRNA was normalized to the amount of bactin1, using the relative quantification method described by the manufacturer.
The zebrafish bactin1 primers were 5′-[…]-3′ (F) and 5′-[…]-3′(R) (Applied Biosystems, USA).
The zebrafish Flk1A (kdrl) primers were 5′- […]-3′ (F) and 5′- […]-3′(R) (Applied Biosystems, USA).
The zebrafish Flk1B (kdr) primers were 5′- […]-3′ (F) and 5′-[…]-3′(R) (Applied Biosystems, USA).
The zebrafish FLT1 primers were 5′-[…]-3′ (F) and 5′-[…]-3′(R) (Applied Biosystems, USA).
The zebrafish VEGFA2 primers were 5′-[…]-3′ (F) and 5′-[…]-3′ (R) (Applied Biosystems, USA).

ERβ [8] = biological target: T3, ERβ; details: percentage of maximum activation induced by 17-β-estradiol (10 µM)
Target sequence in this assay (Q92731 264-498 limits assumed): as the sequence (Q92731 264-498 limits assumed) above

ERα [9] = biological target: T2, ERα; experiment: GeneBLAzer β-lactamase reporter-gene assay, antagonist activity against E2, ERα-UAS-bla GripTite cells; details: in presence of EC80 of 17-β-estradiol

C[C@]12CC[C@@H]3c4ccc(O)cc4CC[C@H]3[C@@H]1CC[C@@H]2O [E2, 17-β-estradiol]
highest non-toxic dose in zebrafish embryos (zebrafish embryos): 10 µM
angiogenic effect in SIVs, comparison with classical SERMs ([1]; 72 hpf for 24 h): no obvious changes

C[C@]12CC[C@@H]3c4ccc(O)cc4C[C@@H](CCCCCCCCC[S+]([O-])CCCC(F)(F)C(F)(F)F)[C@H]3[C@@H]1CC[C@@H]2O (stereo partly drawn) [ICI182, 780, reference compound]
effect on calycosin-induced phosphorylation of ERK1/2 (ERK1/2; ICI182, 780 30 µM, calycosin 100 µM): suppressed phosphorylation of ERK1/2 to control levels
reduction of calycosin-induced HUVEC proliferation (HUVEC; pre-treatment with ER inhibitor 30 µM before calycosin 100 µM): 40%

O=C(Nc1ccc(Cl)cc1)c1ccccc1NCc1ccncc1 [VRI]
effect on calycosin-induced angiogenesis (SIV diameter and endothelial cell number) ([1]; VRI 100 ng/ml with calycosin 100 µM, 72 hpf for 24 h): sufficient to reverse the calycosin-induced angiogenic effects to control levels
effect on angiogenesis in zebrafish embryonic development, inhibitor alone, low concentration ([1]; VRI 100 ng/ml, 72 hpf for 24 h): no effect
effect on angiogenesis in zebrafish embryonic development, inhibitor alone, high concentration ([1]; VRI 1 µg/ml, 72 hpf for 24 h): caused significant (P<0.001) defects in angiogenesis

COc1ccc(-c2coc3cc(O)ccc3c2=O)cc1O [calycosin]
time at which phosphorylation of ERK1/2 reached a plateau (ERK1/2; calycosin 100 µM): 30 to 60 min
phosphorylation of ERK1/2, concentration dependence (ERK1/2; calycosin 10, 30, 100 µM for 30 min, maximum at 100 µM): enhanced in a dose-dependent manner
IC50 value relative to that of E2 (higher) (ERα [2]; binding to ERα and ERβ): approximately 10^4 fold
IC50 (ERα [2]; displacement of Fluormone ES2, 2 h room temperature): 58.1 µM
EC50 (ERα [3]): 2470 nM
increase in maximal activation at ERα compared with ERβ (ERα [3]; agonist activity assay): 2 fold
reduction in EC50 value at ERα compared with ERβ (ERα selectivity) (ERα [3]; agonist activity assay): 2 fold
maximum agonistic activity at ERα (ERα [3]; percentage of maximum activation induced by 17-β-estradiol (10 µM)): 14.6%
increase in endothelial cells population compared with the control [4]: approximately 1.5 times
reduction in IC50 value at ERβ compared with ERα (ERβ [5]): 2 fold
increase in maximal inhibition at ERβ compared with ERα (ERβ [5]; antagonist activity assay): 2 fold
maximum inhibition against E2 at ERβ (ERβ [5]; in presence of EC80 of 17-β-estradiol): 82%
IC50 (ERβ [6]): 32.4 µM
diameter of SIVs ([1]; calycosin 10, 30, 100 µM, 72 hpf to 96 hpf, vs 0.1% DMSO control, P<0.05 and P<0.001): increased in a dose-dependent manner
angiogenic effect in SIVs, comparison with classical SERMs ([1]; 72 hpf for 24 h): significant angiogenic effect
VEGFA mRNA expression level compared to the control ([7]; embryos at 72 hpf, increase trend): 1.2 fold
Flk1A mRNA expression increase ([7]; P<0.001): 0.8 fold
Flk1B mRNA expression increase ([7]; P<0.001): 0.9 fold
VEGFR1 mRNA expression increase ([7]; P<0.001): 1.1 fold
maximum agonistic activity at ERβ (ERβ [8]): 8.6%
maximum inhibition against E2 at ERα (ERα [9]): 46%
promotion of HUVEC proliferation (HUVEC; calycosin 100 µM, Fig. 9A experiment): 67%

O=C(c1ccc(OCCN2CCCCC2)cc1)c1c(-c2ccc(O)cc2)sc2cc(O)ccc12 [raloxifene]
highest non-toxic dose in zebrafish embryos (zebrafish embryos): 10 µM
angiogenic effect in SIVs, comparison with classical SERMs ([1]; 72 hpf for 24 h): no obvious changes

CC/C(=C(\c1ccccc1)c1ccc(OCCN(C)C)cc1)c1ccccc1 [tamoxifen]
highest non-toxic dose in zebrafish embryos (zebrafish embryos): 3 µM
angiogenic effect in SIVs, comparison with classical SERMs ([1]; 72 hpf for 24 h): no obvious changes

— article PMC2912279, “Calycosin Promotes Angiogenesis Involving Estrogen Receptor and Mitogen-Activated Protein Kinase (MAPK) Signaling Pathway in Zebrafish and HUVEC” (PLoS ONE, 2010)
